Entries after “also recorded” stand apart in the source; their conditions may differ.
Experiments:
[1] = tested on: Gα12 coupled and AKAP-Lbc mediated activation of RhoA; assay: Rhotekin-based precipitation of RhoA-GTP, HEK293 transfected with Gα12QL / AKAP-Lbc; assay type: cell-based, human; details: 50 μmol/L, 30 min, vs DMSO
Experimental: HEK293 cells were seeded in 6-well plates. One day later the cells were transfected with the following plasmid DNAs:
After additional 24 hours the cells were treated with compound 31413 (50 μmol/L) or DMSO for 30 min at 37° C. Subsequently, the cells were lysed in precipitation buffer (50 mM Tris pH 7.4, 150 mmol/L NaCl, 4 mmol/L MgCl2; 10% v/v glycerol, 1% octylphenoxypolyethoxyethanol [IPEGAL]) and centrifugated 20000 g for two minutes to remove cell debris. 40 μl of the lysate were taken for the determination of the total RhoA content. The residual lysate was incubated with 40 μl GSH-sepharose coupled GST-rhotekin for one hour at 4° C. Then, the GSH-sepharose was washed twice with precipitation buffer, enriched with SDS-PAGE loading buffer and heated 5 min at 90° C. […] The ratio between total RhoA and Rho-GTP was densitometrically determined.
The activation state of RhoA was determined with a Rho binding region of the rhotekin protein, a Rho effector, immobilised on a sepharose bead in the presence and absence of compound 31413. […]
GTP-bound RhoA was detected by rhotekin precipitation (FIG. 3). The precipitation of RhoA from transfected HEK293 cells was performed with a rhotekin sepharose, and analysed with SDS-PAGE and immunoblotting with a RhoA specific antibody. […] The precipitated RhoA-GTP was separated with SDS-PAGE, blotted and detected with a specific anti-RhoA antibody.

[2] = tested on: AKAP-Lbc mediated RhoA/SRF activation; assay: Dual luciferase SRE reporter assay, AKAP-Lbc transfected HEK293; assay type: cell-based; details: Homo sapiens
Experimental: (§1) The experiments were performed following the protocol of the dual luciferase reporter assay (Promega). HEK293 cells were transfected with plasmid DNAs of two luciferases and plasmids of different exchange factors. A serum response element was located ahead of the coding luciferase sequences. Activated RhoA activates the serum response element, which enables the expression of the firefly luciferase. After 4 hours the cells were treated with compound 31413. After additional twenty four hours the cells were lysed in passive lysis buffer (Promega). The luciferase activity in the cell lysate was determined by measurement of the luminescence signal according to above mentioned protocol with 96 well plate (OptiPlate 96) and LarII- and. Stop-&Glow-substrate solutions in a micro plate reader
(§2) To rule out that other RhoGEF are influenced by the inventive compounds in their activity, HEK293 cells were transfected with different RhoGEF constructs. Additionally, as normalization control, two luciferase plasmids were added, which code for a serum response element (SRE) coupled firefly luciferase and for a Renilla luciferase, respectively. […] The luciferase activities were determined in the lysate. […] Further, the luciferase activity of the indicated RhoGEFs was analysed in absence or presence of 50 μmol/L compound 31413 (FIG. 4 B).

[3] = tested on: different RhoGEF constructs; assay: Dual luciferase SRE reporter assay, other RhoGEF constructs in HEK293; assay type: cell-based, human; details: 50 μmol/L, vs DMSO treated control
Experimental: as §1, §2

3T3 mouse fibroblasts = assay: LPA-induced stress fibre formation, TRITC-phalloidin fluorescence; assay type: cell-based; details: 3T3 cells, LPA 300 nM 10 min; compound 30 μmol/L 30 min pre-treatment
Excerpt: For the initial analysis, 3T3 cells were used to evaluate the cellular effects of the compounds of the present invention. In these cells changes in the cytoskeleton caused by GTPase activation are well observable, because the cells have a G protein coupled receptor for LPA. A stimulation of 3T3 cells with LPA leads to an activation of RhoA and thereby to the formation of fibrillar actin filaments (F-actin, stress fibres). The participation of AKAP-Lbc as an exchange factor for RhoA within the signal transduction via a G protein of the G−12/13 family was shown.
3T3 mouse fibroblasts were seeded on 30 mm cover slips (in 6 well plates) in a cell density of 2×10^5 cells/well. […]
Following that, the cells were washed with phosphate buffer (Dulbecco's Phosphate-Buffered Saline++) and fixed in 2.5% paraformaldehyde in sodium cacodylate buffer (100 mmol/L sodium cacodylate, 100 mmol/L sucrose, pH 7.4) for 15 min. […] For the microscopic investigations, images were taken with two different fluorescence channels. […]
Without LPA stimulation no stress fibres could be identified after addition of DMSO instead of the compounds of the invention (FIG. 2A, a). […] The quantification of the stress fibre formation were performed with the software package ImageJ by the determination of the overall fluorescence of the TRITC-phalloidin. […]

COc1ccc(-c2coc3cc4oc(=O)c(C)c(C)c4cc23)cc1 [Compound 31413, 3-(4-methoxyphenyl)-5,6-dimethyl-furo[3,2-g]chromen-7-one]
amount of activated GTP-bound RhoA precipitated [1]: significantly decreased amount of activated GTP-bound RhoA; also recorded: less RhoA-GTP was precipitated | IC50 [2]: ~25 µM | luciferase activity of the indicated RhoGEFs [3]: None of the investigated GEF shows a significant reduction | formation of stress fibres (3T3 mouse fibroblasts): suppression of the stress fibre formation
